What was measured:
[1] = test system: bronchoconstricting effects of a standard dose of acetylcholine; assay: Bronchodilation upon aerosol inhalation in the guinea pig: inhibition of acetylcholine bronchoconstriction (method of Rosenthale et al.); type: in vivo; conditions: acetylcholine i.v. dose producing ca. 30% bronchoconstriction
Source text: In using the compounds of the invention to produce bronchodilating effects in warm-blooded animals, they may be administered in a variety of dosage forms: oral, injectable, and aerosol inhalation. Aerosol inhalation is a preferred method because of its rapid onset of action, great potency, and specificity of action. The particular dosage to obtain the bronchodilating effect will vary with the particular compound employed, the particular animal involved, and the degree of bronchodilation desired. In the guinea pig, by aerosol inhalation, the dose to produce bronchodilation is from about 0.15 micrograms to about 25 micrograms, and preferably from about 0.15 to about 15 micrograms. The bronchodilation produced upon aerosol inhalation can be observed by the method of Rosenthale et al., J. Pharmacol. Exp. Ther., 178, 541 (1971). Using this procedure the following results were obtained:
*The dose (i.v.) of acetylcholine which produces a ca. 30%

[2] = Hypotensive effect (blood pressure change) in the anesthetized dog, intravenous route; type: in vivo; conditions: dose 100 μg/kg., average of two animals
Protocol: In the use of the compounds of the invention to produce hypotensive effects in warm-blooded animals, administration by the injectable route is preferred, preferably the intravenous route.
Thus in the anesthetized dog by the intravenous route the dose to produce hypotension is from about 1 μg/kg. to about 200 μg/kg. and preferably from about 10 μg/kg. to about 100 μg/kg. Using this procedure the following results were obtained.

SMILES | Percent Inhibition of the bronchoconstricting effects of a standard dose of acetylcholine ([1]; dose 0.15 μg) | Percent Inhibition of the bronchoconstricting effects of a standard dose of acetylcholine ([1]; dose 1.50 μg) | Percent Inhibition of the bronchoconstricting effects of a standard dose of acetylcholine ([1]; dose 15 μg) | Percent Inhibition of the bronchoconstricting effects of a standard dose of acetylcholine ([1]; dose .015 μg) | Δ B.P. [2]
C#C[C@@H]1CC(=O)[C@H](CCCCCCC(=O)O)[C@H]1/C=C/[C@@H](O)CCCCC [3α-Ethynyl-2β-[(3S)-3-Hydroxy-Trans-1-Octenyl]-5-Oxo-1α-Cyclopentaneheptanoic Acid] | 52% | 58% | 76% | 28% | 
C#CC1CC(=O)[C@H](C/C=C\CCCC(=O)O)[C@H]1/C=C/[C@H](O)CCCCC (stereo partly drawn) [7-([3RS]-3-Ethynyl-2β-[(3R)-3-Hydroxy-Trans-1-Octenyl]-5-Oxo-1β-Cyclopentyl)-Cis-5-Heptenoic Acid] |  | 43% | 68% |  | 
C#CC1CC(=O)[C@H](C/C=C\CCCC(=O)O)[C@H]1/C=C/[C@@H](O)CCCCC (stereo partly drawn) [7-([3RS]-3-Ethynyl-2β-[(3S)-3-Hydroxy-Trans-1-Octenyl]-5-Oxo-1α-Cyclopentyl)-Cis-5-Heptenoic Acid] |  |  |  |  | -31 mm. mg
C#CC1CC(=O)[C@H](C/C=C\CCCC(=O)O)[C@H]1/C=C/C(O)(C#C)CCCCC (stereo partly drawn) [7-[(3RS)-3-Ethynyl-2β-[(3RS)-3-Ethynyl-3-Hydroxy-Trans-1-Octenyl]-5-Oxo-1α-Cyclopentyl]-Cis-5-Heptenoic Acid] | 56% | 86% |  | 42% | -41 mm. mg
C#CC1CC(=O)[C@H](CCCCCCC(=O)O)[C@H]1/C=C/C(C)(O)CCCCC (stereo partly drawn) [(3RS)-3-Ethynyl-2β[(3RS)-3-Hydroxy-3-Methyl-Trans-1-Octenyl]-5-Oxo-1α-cyclopentane-Heptanoic Acid] | 54% | 56% | 37% |  | -16 mm. mg
C#CC1CC(=O)[C@H](CCCCCCC(=O)O)[C@H]1/C=C/C(=O)CCCCC (stereo partly drawn) [(3RS)-3-Ethynyl-5-Oxo-2β-(3-Oxo-Trans-1-Octenyl)-1α-Cyclopentaneheptanoic Acid] |  | 36% | 75% |  | 

— patent US4038308A, “Prostaglandin derivatives” (American Home Products Corporation, priority 1976, dated 1977)
